Results reported in patent publication US11345711B2, “8,9-dihydroimidazo[1,2-a]pyrimido[5,4-e]pyrimidin-5(6H)-ones” (IMPACT THERAPEUTICS (SHANGHAI), INC, priority 2016, dated 2022).
pIC50: −log10 of the molar value.

Assays:
Wee1 (h) = Wee1 (h) (Homo sapiens, UniProt P30291); experiment: Wee1 kinase (h) detection method, [γ-33P]-ATP filter assay; type: biochemical
Description: Determination of the inhibitory effect of 6-(2-chlorophenyl)-2-((4-(4-methylpiperazin-1-yl)phenyl)amino)-8,9-dihydroimidazo[1,2-a]pyrimido[5,4-e]pyrimidin-5(6H)-one and Analogs on the Enzyme Activity of Wee1 Kinase by Using the Wee1 Kinase (h) Detection Method
Then the stock solution of all compounds under test with 50× concentration in 100% DMSO was added to make the final concentration of 10/1/0.1/0.01 μM, and then mixed the mixture well. The reaction is initiated by the addition of the Mg/ATP mix. After incubation for 40 minutes at room temperature, the reaction is stopped by the addition of phosphoric acid to a concentration of 0.5%. […] Each compound sample is duplicated in duplicate. The negative control was lack of all the components of Wee1 enzyme, and the positive was addition of 30% phosphoric acid to terminate the reaction. The Wee1 inhibitor AZD1775 was detected at 10 μM at the same experiment condition.

LoVo cells = experiment: MTT based cell viability assay on LoVo cells; conditions: Homo sapiens, LoVo, 72 h, 3 d, read-out: IC50, growth inhibition of LoVo cells
Description: Determination of the cell growth inhibiting activity of 6-(2-chlorophenyl)-2-((4-(4-methylpiperazin-1-yl)phenyl)amino)-8,9-dihydroimidazo[1,2-a]pyrimido[5,4-e]pyrimidin-5(6H)-one and analogs on LoVo cells using a MTT based cell viability assay
(§1) The thawed LoVo cells were cultured and passaged to the third generation, and the growth state was good and the confluence was about 90%, which began to be used in the experiment. The LoVo cells were digested with trypsin, centrifuged at 800 rpm for 5 min, the supernatant was discarded, resuspended with fresh culture medium, and counted. 6000 Cells are seeded to each well of a 96-well plate. The cells are incubated at 37° C. in a 5% CO2 cell culture incubator overnight. The tested sample (including the tested compound and the reference compound AZD1775) was diluted continuously to 8 concentrations (the last concentration was negative control of DMSO) with a 1:3 and 1:10 dilution in DMSO respectively: 10 μM, 3.3 μM, 1 μM, 0.33 μM, 0.1 μM, 0.033 μM, 0.01 μM, 0 μM (the final concentration of DMSO was 1%). 5 μL of each concentration was added to 120 μL of culture medium (25 times diluted), and the mixture was shaken well. The overnight cells were taken and the culture medium was removed, 195 μL of fresh culture medium was added to each well, and 5 μL of diluted culture medium containing the corresponding concentration of the tested sample was added respectively, and the culture plate was then placed in the 5% CO2 cell culture incubator at 37° C. for 3 d. After removing the original solution and adding 100 μL of fresh serum-free DMEM culture medium containing MTT (0.5 mg/mL) per well, the culture was continued. The original solution was removed after 4 hrs and 100 μl DMSO was added to each well. The 96-well cell culture plates were shaken away from light for 10 min and readed in a multifunctional reader at 552/630/690 nm to give absorption values (OD values). The data were analyzed using a commercial graphic software (Graph Pad Prism 5.0) and the inhibitory activity of the compound on cell proliferation was plotted in terms of cell survival and compound concentration. The IC50 values were fitted by the S-shaped dose-response curve equation as follows: Y=100/(1+10^(Log C-Log IC50)), where C was the concentration of testing compounds.

NCI-H1299 cells = experiment: MTT based cell viability assay on NCI-H1299 cells; conditions: Homo sapiens, NCI-H1299 cells, read-out: IC50, growth inhibition of NCI-H1299 cells
Description: Determination of the cell growth inhibiting activity of 6-(2-chlorophenyl)-2-((4-(4-methylpiperazin-1-yl)phenyl)amino)-8,9-dihydroimidazo[1,2-a]pyrimido[5,4-e]pyrimidin-5(6H)-one and analogs on NCI-H1299 cells using a MTT based cell viability assay
as §1, with “NCI-H1299” for “LoVo”, “group,” for “medium,”, “1000” for “6000”, “1‰).” for “1%).”, “C−Log” for “C-Log”

Wee1 (h), sequence (P30291 whole entry): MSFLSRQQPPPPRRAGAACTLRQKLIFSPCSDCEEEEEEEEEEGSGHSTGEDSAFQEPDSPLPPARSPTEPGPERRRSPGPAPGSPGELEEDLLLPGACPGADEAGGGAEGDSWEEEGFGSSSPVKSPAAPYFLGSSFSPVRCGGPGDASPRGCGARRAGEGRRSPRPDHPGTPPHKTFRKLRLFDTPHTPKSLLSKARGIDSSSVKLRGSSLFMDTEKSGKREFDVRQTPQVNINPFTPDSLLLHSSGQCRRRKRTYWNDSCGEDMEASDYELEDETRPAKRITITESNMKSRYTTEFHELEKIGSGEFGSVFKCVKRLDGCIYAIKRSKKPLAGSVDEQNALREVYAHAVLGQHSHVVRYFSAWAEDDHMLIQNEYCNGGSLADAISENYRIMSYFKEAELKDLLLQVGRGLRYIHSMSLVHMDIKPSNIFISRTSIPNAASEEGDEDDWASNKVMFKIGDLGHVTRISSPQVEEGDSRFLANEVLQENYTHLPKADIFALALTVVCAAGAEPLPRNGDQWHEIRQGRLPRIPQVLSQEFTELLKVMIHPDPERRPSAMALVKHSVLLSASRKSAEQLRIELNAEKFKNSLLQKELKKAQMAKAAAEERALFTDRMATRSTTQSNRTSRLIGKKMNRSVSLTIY

| SMILES | Inh. (%) of Wee1 kinase enzyme activity (Wee1 (h); C 1 μm compound) | pIC50 (LoVo cells) | pIC50 (NCI-H1299 cells) | Inh. (%) of Wee1 kinase enzyme activity (Wee1 (h); C 0.01 μm compound) | Inh. (%) of Wee1 kinase enzyme activity (Wee1 (h); C 0.1 μm compound) |
| --- | --- | --- | --- | --- | --- |
| CN1CCN(c2ccc(Nc3ncc4c(n3)N3CCN=C3N(C3CC3)C4=O)cc2)CC1 [Example 20, 6-Cyclopropyl-2-((4-(4-methylpiperazin-1-yl)phenyl)amino)-8,9-dihydroimidazo[1,2-a]pyrimido[5,4-e]pyrimidin-5(6H)-one] | 9% | < 4.00 | < 5.00 |  |  |
| CN1CCN(c2ccc(Nc3ncc4c(n3)N3CCN=C3N(C3CCCCC3)C4=O)cc2)CC1 [Example 21, 6-Cyclohexyl-2-((4-(4-methylpiperazin-1-yl)phenyl)amino)-8,9-dihydroimidazo[1,2-a]pyrimido[5,4-e]pyrimidin-5(6H)-one] | 9% | 5.67 | 5.48 |  |  |
| C=CCN1C(=O)c2cnc(Nc3ccc(N4CCN(C)CC4)cc3)nc2N2CCN=C12 [Example 22, 6-Allyl-2-((4-(4-methylpiperazin-1-yl)phenyl)amino)-8,9-dihydroimidazo[1,2-a]pyrimido[5,4-e]pyrimidin-5(6H)-one] | 8% | < 4.00 | < 5.00 |  |  |
| CN1CCN(c2ccc(Nc3ncc4c(n3)N3CCN=C3N(c3cccs3)C4=O)cc2)CC1 [Example 23, 2-((4-(4-Methylpiperazin-1-yl)phenyl)amino)-6-(thiophen-2-yl)-8,9-dihydroimidazo[1,2-a]pyrimido[5,4-e]pyrimidin-5(6H)-one] | 22% | < 5.52 | < 5.00 |  |  |
| CN1CCN(c2ccc(Nc3ncc4c(n3)N3CC(C)(C)N=C3N(c3c(F)cccc3Cl)C4=O)cc2)CC1 [Example 27, 6-(2-Chloro-6-fluorophenyl)-8,8-dimethyl-2-((4-(4-methylpiperazin-1-yl)phenyl)amino)-8,9-dihydroimidazo[1,2-a]pyrimido[5,4-e]pyrimidin-5(6H)-one] | 17% | < 4.00 | < 5.00 |  |  |
| CN1CCN(c2ccc(Nc3ncc4c(n3)N3C(=NCC3(C)C)N(c3c(F)cccc3Cl)C4=O)cc2)CC1 [Example 28, 6-(2-Chloro-6-fluorophenyl)-9,9-dimethyl-2-((4-(4-methylpiperazin-1-yl)phenyl)amino)-8,9-dihydroimidazo[1,2-a]pyrimido[5,4-e]pyrimidin-5(6H)-one] | 67% | < 6.00 | < 5.52 |  |  |
| O=C1c2cnc(Nc3ccc(CN4CCOCC4)cc3)nc2N2CCN=C2N1c1c(F)cccc1Cl [Example 33, 6-(2-Chloro-6-fluorophenyl)-2-((4-(morpholinomethyl)phenyl)amino)-8,9-dihydroimidazo[1,2-a]pyrimido[5,4-e]pyrimidin-5(6H)-one] | 87% | < 4.00 | < 5.00 |  |  |

Now from value to compound:

| Inh. (%) of Wee1 kinase enzyme activity (Wee1 (h); C 1 μm compound) | pIC50 (LoVo cells) | pIC50 (NCI-H1299 cells) | Inh. (%) of Wee1 kinase enzyme activity (Wee1 (h); C 0.01 μm compound) | Inh. (%) of Wee1 kinase enzyme activity (Wee1 (h); C 0.1 μm compound) | SMILES |
| --- | --- | --- | --- | --- | --- |
| 94% | 6.08 | < 5.00 | 19% | 69% | C[C@@H]1CN(c2ccc(Nc3ncc4c(n3)N3CCN=C3N(c3c(F)cccc3Cl)C4=O)cc2)C[C@H](C)O1 [Example 32, 6-(2-Chloro-6-fluorophenyl)-2-((4-((2S,6R)-2,6-dimethylmorpholino)phenyl)amino)-8,9-dihydroimidazo[1,2-a]pyrimido[5,4-e]pyrimidin-5(6H)-one] |
| 97% | 6.46 | 6.33 | 38% | 93% | C[C@@H]1CN(c2ccc(Nc3ncc4c(n3)N3CCN=C3N(c3c(F)cccc3Cl)C4=O)cc2)C[C@H](C)N1C [Example 34, 6-(2-Chloro-6-fluorophenyl)-2-((4-((3S,5R)-3,4,5-trimethylpiperazin-1-yl)phenyl)amino)-8,9-dihydroimidazo[1,2-a]pyrimido[5,4-e]pyrimidin-5(6H)-one] |
| 100% | 6.58 | 6.54 | 27% | 82% | CC(C)N1[C@H](C)CN(c2ccc(Nc3ncc4c(n3)N3CCN=C3N(c3c(F)cccc3Cl)C4=O)cc2)C[C@@H]1C [Example 35, 6-(2-Chloro-6-fluorophenyl)-2-((4-((3S,5R)-4-isopropyl-3,5-dimethylpiperazin-1-yl)phenyl)amino)-8,9-dihydroimidazo[1,2-a]pyrimido[5,4-e]pyrimidin-5(6H)-one] |
| 0% | < 4.00 | < 5.00 |  |  | CN1CCN(c2ccc(Nc3ncc4c(n3)N3CCN=C3N(c3c(F)cccc3Cl)C4=O)c(F)c2)CC1 [Example 36, 6-(2-Chloro-6-fluorophenyl)-2-((2-fluoro-4-(4-methylpiperazin-1-yl)phenyl)amino)-8,9-dihydroimidazo[1,2-a]pyrimido[5,4-e]pyrimidin-5(6H)-one] |
| 1% | < 4.00 | < 5.00 |  |  | C[C@@H]1CN(c2ccc(Nc3ncc4c(n3)N3CCN=C3N(c3c(F)cccc3Cl)C4=O)c(F)c2)C[C@H](C)N1C [Example 37, 6-(2-Chloro-6-fluorophenyl)-2-((2-fluoro-4-((3S,5R)-3,4,5-trimethylpiperazin-1-yl)phenyl)amino)-8,9-dihydroimidazo[1,2-a]pyrimido[5,4-e]pyrimidin-5(6H)-one] |
| 34% | < 4.00 | < 5.00 |  |  | CN1CCN(c2ccc(Nc3ncc4c(n3)N3CCN=C3N(c3c(F)cccc3Cl)C4=O)c(Cl)c2)CC1 [Example 38, 6-(2-Chloro-6-fluorophenyl)-2-((2-chloro-4-(4-methylpiperazin-1-yl)phenyl)amino)-8,9-dihydroimidazo[1,2-a]pyrimido[5,4-e]pyrimidin-5(6H)-one] |
| 28% | < 4.00 | < 5.00 |  |  | C[C@@H]1CN(c2ccc(Nc3ncc4c(n3)N3CCN=C3N(c3c(F)cccc3Cl)C4=O)c(Cl)c2)C[C@H](C)N1C [Example 39, 6-(2-Chloro-6-fluorophenyl)-2-((2-chloro-4-((3S,5R)-3,4,5-trimethylpiperazin-1-yl)phenyl)amino)-8,9-dihydroimidazo[1,2-a]pyrimido[5,4-e]pyrimidin-5(6H)-one] |
